Assay results from ChEMBL document CHEMBL3352180, “From chemical tools to clinical medicines: nonimmunosuppressive cyclophilin inhibitors derived from the cyclosporin and sanglifehrin scaffolds” (J Med Chem, 2014).
One block for each compound: values may come before it.

Tests used:
[1] = target: Peptidyl-prolyl cis-trans isomerase A (Homo sapiens, UniProt P62937)
Description: Binding affinity to cyclophilin A (unknown origin)

[2] = target: Peptidyl-prolyl cis-trans isomerase F, mitochondrial (Homo sapiens, UniProt P30405)
Description: Binding affinity to cyclophilin D (unknown origin)

[3] = test system: Hepatitis C virus; experiment: microbe, parasite or virus in culture
Description: Antiviral activity against HCV by replicon based assay

[4] = species: Homo sapiens; experiment: Inhibition of Pgp (unknown origin) assessed as reduction in pump efflux activity
[5] = test system: Hepatitis C virus; experiment: Antiviral activity against HCV assessed as inhibition of viral replication at 1 uM by replicon based assay; format: functional, Hepacivirus hominis
[6] = test system: Lymphocyte; experiment: cells
Description: Immunosuppressive activity in lymphocytes (unknown origin) by mixed lymphocyte reaction assay

Chain of Peptidyl-prolyl cis-trans isomerase A (P62937 whole entry): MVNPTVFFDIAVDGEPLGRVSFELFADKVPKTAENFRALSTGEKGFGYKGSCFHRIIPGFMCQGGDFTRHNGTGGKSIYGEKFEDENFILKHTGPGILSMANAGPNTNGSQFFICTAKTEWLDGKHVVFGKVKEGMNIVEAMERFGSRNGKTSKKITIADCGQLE
Chain of Peptidyl-prolyl cis-trans isomerase F, mitochondrial (P30405 whole entry): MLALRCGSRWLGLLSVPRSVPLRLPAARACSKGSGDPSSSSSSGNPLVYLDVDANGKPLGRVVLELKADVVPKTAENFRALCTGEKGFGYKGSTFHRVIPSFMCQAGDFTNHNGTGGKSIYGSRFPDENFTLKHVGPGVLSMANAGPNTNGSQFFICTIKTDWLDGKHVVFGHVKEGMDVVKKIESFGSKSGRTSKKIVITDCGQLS

SMILES: CC(C)[C@@H]1OC(=O)[C@]2(/C=C/c3ccc4ccc(nc4c3)[C@@H](C)OC(=O)[C@@H]3CCCN(N3)C(=O)[C@H](C)NC1=O)CC[C@H](O)CC2
inhibition at 1 µM [5]: 99%

SMILES: CC(C)[C@@H]1NC(=O)C([C@H](C)O)/C=C/c2ccc3ccc(nc3c2)[C@@H](C)OC(=O)[C@@H]2CCCN(N2)C(=O)[C@H](C)NC1=O (some centres not stated)
inhibition at 1 µM [5]: 99%

Other lines, results leading:

Kd [1]: < 60 nM
Kd [2]: < 60 nM
EC50 [3]: < 200 nM
SMILES: C/C=C/C[C@@H](C)[C@@H](O)[C@H]1C(=O)N[C@@H](CC)C(=O)N(C)[C@@H](C)C(=O)N(C)[C@@H](CC(C)C)C(=O)N(CC=C(C)C)[C@@H](C(C)C)C(=O)N(C)[C@@H](CC(C)C)C(=O)N[C@@H](C)C(=O)N[C@H](C)C(=O)N(C)[C@@H](CC(C)C)C(=O)N(C)[C@@H](CC(C)C)C(=O)N(C)[C@@H](C(C)C)C(=O)N1C

INH [4]: 15 µM
SMILES: C/C=C/C[C@@H](C)[C@@H](O)[C@H]1C(=O)N[C@@H](CC)C(=O)N(C)[C@H](SCCN(C)C)C(=O)N(C)[C@@H](CC(C)(C)O)C(=O)N[C@@H](C(C)C)C(=O)N(C)[C@@H](CC(C)C)C(=O)N[C@@H](C)C(=O)N[C@H](C)C(=O)N(C)[C@@H](CC(C)C)C(=O)N(C)[C@@H](CC(C)C)C(=O)N(C)[C@@H](C(C)C)C(=O)N1C

EC50 [6]: 3000 nM
SMILES: C/C=C/C[C@@H](C)[C@@H](O)[C@H]1C(=O)N[C@@H](CC)C(=O)N(C)[C@@H](SCCCN2CCOCC2)C(=O)N(C)[C@@H](CC(C)C)C(=O)N[C@@H](C(C)C)C(=O)N(C)[C@@H](CC(C)C)C(=O)N[C@@H](C)C(=O)N[C@H](C)C(=O)N(C)[C@@H](CC(C)C)C(=O)N(C)[C@@H](CC(C)C)C(=O)N(C)[C@@H](C(C)C)C(=O)N1C
